In patent US20140309419A1, “METHOD FOR ENHANCING THE THERMAL STABILITY OF IONIC COMPOUNDS” (Danmarks Tekniske Universite, priority 2011, published 2014):
Marks after values point to notes of the source that are not given here.

How the values were obtained:
[1] = Thermal stability by TGA, T5% onset method (Mettler-Toledo TGA/DSC, 5° C./min, nitrogen); type: physicochemical; settings: not supported/neat
From the text: (§1) The term “upper operating temperature” as used herein refers to the highest temperature to which the ionic compound can be heated without undergoing thermal degradation. This temperature is usually and routinely measured by Thermo Gravimetric Analysis (TGA) and/or Differential Scanning calorimetry (DSC).

[2] = Thermal stability by TGA, inflection point method (TA2950 TGA, 5° C./min, dried air); type: physicochemical; settings: not supported/neat
From the text: as §1

[3] = Thermal stability by TGA, supported vs. unsupported, evaluation method not marked
Method: To test for such influence, adsorption experiments with butylmethylimidazolium acetate [BMIM][OAc] on four different porous silica types was carried out (FIG. 7a, 7b). The silicas had the following pore diameters: PG2000 (pore diameter 2000 Å), PG500 (pore diameter 500 Å), PG75 (pore diameter 75 Å) and MCM-41 (pore diameter 50 Å).
The silicas had the following pore diameters: PG2000 (pore diameter 2000 Å), PG500 (pore diameter 500 Å) and PG75 (pore diameter 75 Å).
Thermal stability was measured by using thermogravimetric analysis (TGA), with isocratic heating at 5° C. min^−1 under an inert nitrogen and/or dried air atmosphere. The decomposition temperatures were determined from both the T5% onset (onset temperature for 5% decomposition) in an isocratic TGA experiment, and from the inflection point (temperature at the inflection point of TGA curve, which indicates the point where the degradation rate is maximum). For T5% onset measurements, thermal stability was determined in a Mettler-Toledo Star^e TGA/DSC unit by heating from 25° C. to 800° C. with a heating rate of 5° C./min under nitrogen. For inflection point measurements, thermal stability was determined using a TA2950 TGA unit by heating from 25° C. to 800° C. with a heating rate of 5° C./min under dried air.

[4] = 10% (wt/wt) on PG75 silica (pore diameter 75 Å)
[5] = 10% (wt/wt) on PG500 silica (pore diameter 500 Å)
[6] = 10% (wt/wt) on PG2000 silica (pore diameter 2000 Å)

| Compound | Thermal Stability (inflection point) [2] | enhancement of thermal stability vs. unsupported [3, 4] | enhancement of thermal stability vs. unsupported [3, 5] | enhancement of thermal stability vs. unsupported [3, 6] | other results |
| --- | --- | --- | --- | --- | --- |
| CC(C)Cc1ccc(C(C)C(=O)O)cc1 (centres unmarked) [Ibuprofene (free acid), Ibuprofene] | – | – | – | – | Thermal Stability (T5% onset) [1]: 154.7^a ° C. |
| CCCCC(CC)COC(=O)CC(C(=O)OCC(CC)CCCC)S(=O)(=O)O (centres unmarked) [Dioctylsulfosuccinic Acid [3], Dioctylsulfosuccinic Acid] | 161.86^b ° C. | – | – | – | – |
| CCCCCCCCCCCCCCCC[N+](C)(C)C.Nc1nc2c(ncn2COCCO)c(=O)[n-]1 [Trimethylhexadecylammonium acyclovir [2], Trimethylhexadecylammonium Acyclovir] | 188.60^b ° C. | – | – | – | – |
| CC(=O)[O-].CCCCn1cc[n+](C)c1 [[BMIM][OAc], butylmethylimidazolium acetate] | – | significant enhancement of the thermal stability | no enhancement of thermal stability | no enhancement of thermal stability | enhancement of thermal stability vs. unsupported ([3]; 10% (wt/wt) on MCM-41 silica (pore diameter 50 Å)): significant enhancement of the thermal stability |
| CC[N+](CC)(CC)CC.O=C(O)CNCP(=O)([O-])O [Tetraethylammonium Glyphosate [5], Tetraethylammonium Glyphosate] | 149.76^b ° C. | – | – | – | – |
| CCCCn1cc[n+](C)c1.[Cl-] [[BMIM][Cl], butylmethylimidazolium chloride] | – | no enhancement of thermal stability | no enhancement of thermal stability | no enhancement of thermal stability | – |
